According to patent EP4603105A1, “PHARMACEUTICAL COMPOSITION CONTAINING CYCLIC COMPOUND HAVING SELECTIVE KRAS INHIBITORY EFFECT AGAINST HRAS AND NRAS” (CHUGAI SEIYAKU KABUSHIKI KAISHA, priority 2022, dated 2024):
pIC50, pKd: −log10 of the molar value. *1 amine or outer side, *2 acyl side, *3 side chain or, on linkers, in order; H or OH if unused. Where a SMILES comes first, the peptide text is derived from it. Bridges are numbered along the chain shown (N, C = ends). [ ]: non-standard residue; d: D form. The star is where a group is joined. hPhe(3-Cl-4-CF3) = N[C@@H](CCc1ccc(C(F)(F)F)c(Cl)c1)C(=O)O; NPrPhe(4-CF3) = CCCN[C@@H](Cc1ccc(C(F)(F)F)cc1)C(=O)O; X8 = CCCN([C@@H](COCCC(C)C)C(=O)[*:2])[*:1]; NMeGly(cPent) = CN[C@H](C(=O)O)C1CCCC1; Hyp = O=C(O)[C@@H]1C[C@@H](O)CN1; NMeD = CN[C@@H](CC(=O)O)C(=O)O; NMeL = CN[C@@H](CC(C)C)C(=O)O; Morpholide = C1CN(*)CCO1; NMeA = CN[C@@H](C)C(=O)O; Aze = O=C(O)[C@@H]1CCN1; Ac4c = NC1(C(=O)O)CCC1; Sar = CNCC(=O)O

How the values were obtained:
[1] = test system: human lung cancer strain NCI-H441; type: cell-based
Procedure, shortened: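 Step one: dispense the test compound in serial DMSO dilutions. Step three: add the reagent and measure […].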

HRAS wild-type protein = HRAS wild-type protein (Homo sapiens, UniProt P01112); assay: Binding to HRAS by surface plasmon resonance (SPR), KD and KD ratio to KRAS
Procedure, shortened: (§1)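 Biotinylated GDP-bound RAS was captured at about 100–300 RU. Running buffer: HBS pH 7.4, 10 mM MgCl2, 10 µM GDP, 1 mM DTT, 0.01% Tween 20, 4% DMSO.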

[2] = molecular target: GDP-bound NRAS wild-type protein (Homo sapiens, UniProt P01111); assay: Binding to NRAS by surface plasmon resonance (SPR), KD and KD ratio to KRAS
Procedure, shortened: as §1

[3] = molecular target: GDP-bound KRAS wild-type protein (Homo sapiens, UniProt P01116); assay: Binding to KRAS by surface plasmon resonance (SPR), dissociation constant KD
Procedure, shortened: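 Affinity is measured by surface plasmon resonance at 30°C against captured, GDP-loaded RAS carrying a biotinylated Avi tag. Compounds are titrated by single-cycle kinetics, and KD comes from a 1:1 fit.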

[4] = Single Cycle Kinetics, 1:1 binding model
[5] = ratio of KD for HRAS wild-type protein to KD for KRAS
[6] = ratio of KD for GDP-bound NRAS wild-type protein to KD for KRAS
[7] = ratio of the KD value with respect to HRAS wild-type protein to the KD value with respect to KRAS
[8] = ratio of the KD value with respect to GDP-bound NRAS wild-type protein to the KD value with respect to KRAS
[9] = ratio of KD value for HRAS wild-type protein to KD value for KRAS (SPR)
[10] = ratio of KD value for GDP-bound NRAS wild-type protein to KD value for KRAS (SPR)

GDP-bound NRAS wild-type protein, sequence (P01111 whole entry): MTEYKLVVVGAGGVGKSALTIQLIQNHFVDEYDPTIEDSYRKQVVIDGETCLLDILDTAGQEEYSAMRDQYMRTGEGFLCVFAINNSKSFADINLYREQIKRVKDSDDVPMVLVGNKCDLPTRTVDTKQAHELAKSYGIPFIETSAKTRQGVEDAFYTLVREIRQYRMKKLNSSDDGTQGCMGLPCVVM
HRAS wild-type protein, sequence (P01112 whole entry): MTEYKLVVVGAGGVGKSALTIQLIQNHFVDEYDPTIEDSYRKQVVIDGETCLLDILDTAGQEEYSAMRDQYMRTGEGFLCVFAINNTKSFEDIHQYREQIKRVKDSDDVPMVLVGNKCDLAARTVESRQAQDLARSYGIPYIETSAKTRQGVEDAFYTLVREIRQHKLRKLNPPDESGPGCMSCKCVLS
GDP-bound KRAS wild-type protein, sequence (P01116 1-188 isoform P01116-2): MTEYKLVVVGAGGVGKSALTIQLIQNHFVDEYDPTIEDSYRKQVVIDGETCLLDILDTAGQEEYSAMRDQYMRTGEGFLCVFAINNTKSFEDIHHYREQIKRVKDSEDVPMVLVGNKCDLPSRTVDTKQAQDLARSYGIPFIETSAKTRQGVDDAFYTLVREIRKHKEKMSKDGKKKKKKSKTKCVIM

Structure (SMILES)	pIC50 [1]	pKd [3, 4]	HRAS /KRAS (HRAS wild-type protein; [5])	NRAS /KRAS [2, 6]	HRAS /KRAS (HRAS wild-type protein; [7])	NRAS /KRAS [2, 8]	also measured
CCO[C@@H]1C[C@H]2C(=O)NC3(CCC3)C(=O)N(C)[C@@H](C3CCCC3)C(=O)N(C)[C@H](C(=O)N(CC)CC)CC(=O)N(C)[C@@H](CC(F)F)C(=O)N[C@@H]([C@@H](C)CC)C(=O)N(C)CC(=O)N(C)[C@H]3C/C=C\CCN(C3=O)[C@@H](Cc3ccc(C(F)(F)F)cc3)C(=O)N(C)CC(=O)N[C@@H](CCc3cc(F)c(C(F)(F)F)c(F)c3)C(=O)N2C1 [PP1309]	8.28	9.80	–	–	–	–	HRAS /KRAS (HRAS wild-type protein; ratio of KD with respect to HRAS wild-type protein to KD with respect to KRAS): A (a compound having 10 or more and less than 20 is denoted as A); NRAS /KRAS ([2]; ratio of KD with respect to GDP-bound NRAS wild-type protein to KD with respect to KRAS): A (a compound having 10 or more and less than 20 is denoted as A)
CCO[C@@H]1C[C@H]2C(=O)NC3(CCC3)C(=O)N(C)[C@@H](C3CCCC3)C(=O)N(C)[C@H](C(=O)N(C)C)CC(=O)N(C)[C@@H](CC3CCCC3)C(=O)N[C@@H]([C@@H](C)CC)C(=O)N(C)CC(=O)N(C)[C@H]3C/C=C\CCN(C3=O)[C@@H](Cc3ccc(C)cc3)C(=O)N(C)CC(=O)N[C@@H](CCc3ccc(C(F)(F)F)c(C4CC4)c3)C(=O)N2C1 [PP2681]	7.54	–	A (a compound having 10 or more and less than 20 is denoted as A)	A (a compound having 10 or more and less than 20 is denoted as A)	–	–	pKd ([3]; 1:1 binding model): 9.43
CCO[C@@H]1C[C@H]2C(=O)NC3(CCC3)C(=O)N(C)[C@@H](C3CCCC3)C(=O)N(C)[C@H](C(=O)N3CCOCC3)CC(=O)N(C)[C@@H](Cc3cccc(F)c3)C(=O)N[C@@H]([C@@H](C)CC)C(=O)N(C)CC(=O)N(C)[C@H]3CCCCCN(C3=O)[C@@H](Cc3ccc(C(F)(F)F)cc3)C(=O)N(C)CC(=O)N[C@@H](CCc3cc(F)c(C(F)(F)F)c(F)c3)C(=O)N2C1 [PP0856]	7.18	–	B (a compound having 3 or more and less than 10 is denoted as B)	B (a compound having 3 or more and less than 10 is denoted as B)	–	–	pKd ([3]; Single Cycle Kinetics): 9.02
CCCN(C)C(=O)[C@@H]1CC(=O)N(C)[C@@H](CCOC)C(=O)N[C@@H]([C@@H](C)CC)C(=O)N(C)CC(=O)N(C)[C@H]2C/C=C\CCN(C2=O)[C@@H](Cc2ccc(C(F)(F)F)cc2)C(=O)N(C)CC(=O)N[C@@H](CCc2ccc(C(F)(F)F)c(OC)c2)C(=O)N2C[C@@H](C)C[C@H]2C(=O)NC2(CCC2)C(=O)N(C)[C@@H](C2CCCC2)C(=O)N1C [PP2029]	7.72	10.16	–	–	B (a compound having 3 or more and less than 10 is denoted as B)	A (a compound having 10 or more and less than 20 is denoted as A)	–
CCCN1C(=O)CN(C)C(=O)[C@@H]2CCN2C(=O)[C@H]([C@@H](C)CC)NC(=O)[C@H](CC(C)C)N(C)C(=O)C[C@@H](C(=O)N(C)C)NC(=O)[C@H](C2CCCC2)N(C)C(=O)C2(CCC2)NC(=O)[C@@H]2C[C@@H](OCC)CN2C(=O)[C@H](CCc2ccc(C(F)(F)F)c(Cl)c2)NC(=O)CN(C)C(=O)[C@@H]1Cc1ccc(C(F)(F)F)cc1 [PP0378] ([NMeL]I[Aze][Sar][NPrPhe(4-CF3)][Sar][hPhe(3-Cl-4-CF3)][Hyp](Et)[Ac4c][NMeGly(cPent)]D-NMe2; lactam N-11)	6.96	–	B (a compound having 3 or more and less than 10 is denoted as B)	B (a compound having 3 or more and less than 10 is denoted as B)	–	–	pKd ([3]; 1:1 binding model): 9.07
CCCOC[C@H]1C(=O)N[C@@H]([C@@H](C)CC)C(=O)N(C)CC(=O)N(C)[C@H]2C/C=C\CCN(C2=O)[C@@H](Cc2ccc(C(F)(F)F)cc2)C(=O)N(C)CC(=O)N[C@@H](CCc2ccc(C(F)(F)F)c(OC)c2)C(=O)N2C[C@@H](C)C[C@H]2C(=O)NC2(CC(C)(C)C2)C(=O)N(C)[C@@H](C2CCCC2)C(=O)N(C)[C@H](C(=O)N(C)C)CC(=O)N1C [PP1997]	7.85	10.01	–	–	B (a compound having 3 or more and less than 10 is denoted as B)	A (a compound having 10 or more and less than 20 is denoted as A)	–
CCC(CC)[C@H]1C(=O)N(C)[C@H](C(=O)N(C)C)CC(=O)N(C)[C@@H](COC)C(=O)N[C@@H]([C@@H](C)CC)C(=O)N(C)CC(=O)N(C)[C@H]2C/C=C\CCN(C2=O)[C@@H](Cc2ccc(C)cc2)C(=O)N(C)CC(=O)N[C@@H](CCc2ccc(C(F)(F)F)c(OC)c2)C(=O)N2CCOC[C@H]2C(=O)NC2(CC(C)(C)C2)C(=O)N1C [PP2938]	6.98	–	A (a compound having 10 or more and less than 20 is denoted as A)	AA (a compound having 20 or more is denoted as AA)	–	–	pKd ([3]; 1:1 binding model): 8.96
CCO[C@@H]1C[C@H]2C(=O)NC3(CCC3)C(=O)N(C)[C@@H](C3CCCC3)C(=O)N(C)[C@H](C(=O)N(C)CC)CC(=O)N(C)[C@H]3CCCCCCc4ccc(cc4)C[C@@H](C(=O)N(C)CC(=O)N[C@@H](CCc4ccc(C(F)(F)F)c(OC)c4)C(=O)N2C1)N1CC/C=C\C[C@@H](C1=O)N(C)C(=O)CN(C)C(=O)[C@H]([C@@H](C)CC)NC3=O [PP2263]	7.71	9.01	–	–	A (a compound having 10 or more and less than 20 is denoted as A)	A (a compound having 10 or more and less than 20 is denoted as A)	–
CCC[C@H]1C(=O)N[C@@H](C2CCC2)C(=O)N(C)CC(=O)N(C)[C@H]2C/C=C\CCN(C2=O)[C@@H](Cc2ccc(C)cc2)C(=O)N(C)CC(=O)N[C@@H](CCc2ccc(C(F)(F)F)c(F)c2)C(=O)N2C[C@H](OCC)C[C@H]2C(=O)NC2(CC(C)(C)C2)C(=O)N(C)[C@@H](C2CCC2)C(=O)N(C)[C@H](C(=O)N(C)C)CC(=O)N1C [PP2242]	6.75	8.74	–	–	A (a compound having 10 or more and less than 20 is denoted as A)	A (a compound having 10 or more and less than 20 is denoted as A)	–
CCO[C@@H]1C[C@H]2C(=O)NC3(CCC3)C(=O)N(C)[C@@H](C3CCCC3)C(=O)N(C)[C@H](C(=O)N3CCOCC3)CC(=O)N(C)[C@@H](CC(C)C)C(=O)N[C@@H]([C@H](C)CC)C(=O)N(C)CC(=O)N(C)[C@H]3CCCCN(C3=O)[C@@H](Cc3ccc(C(F)(F)F)cc3)C(=O)N(C)CC(=O)N[C@@H](CCc3cc(F)c(C(F)(F)F)c(F)c3)C(=O)N2C1 [PP0806]	7.77	–	B (a compound having 3 or more and less than 10 is denoted as B)	B (a compound having 3 or more and less than 10 is denoted as B)	–	–	pKd ([3]; Single Cycle Kinetics): 9.72
CCCC[C@H]1C(=O)N[C@@H]([C@@H](C)CC)C(=O)N(C)CC(=O)N(C)[C@H]2C/C=C\CCN(C2=O)[C@@H](Cc2ccc(C(F)(F)F)cc2)C(=O)N(C)CC(=O)N[C@@H](CCc2cc(F)c(C(F)(F)F)c(F)c2)C(=O)N2C[C@H](OCC)C[C@H]2C(=O)NC2(CC(F)(F)C2)C(=O)N(C)[C@@H](C2CCCC2)C(=O)N(C)[C@H](C(=O)N(C)C)CC(=O)N1C [PP1740]	8.44	10.28	–	–	–	–	HRAS /KRAS (HRAS wild-type protein; [9]): A (a compound having 10 or more and less than 20 is denoted as A); NRAS /KRAS [2, 10]: A (a compound having 10 or more and less than 20 is denoted as A)
CCC[C@H]1C(=O)N[C@@H]([C@@H](C)CC)C(=O)N(C)CC(=O)N(C)[C@H]2C/C=C\CCN(C2=O)[C@@H](Cc2ccc(C)cc2)C(=O)N(C)CC(=O)N[C@@H](CCc2cc(F)c(C(F)(F)F)c(F)c2)C(=O)N2C[C@@H](C)C[C@H]2C(=O)NC2(CCC2)C(=O)N(C)[C@@H](C2CCCC2)C(=O)N(C)[C@H](C(=O)N(C)CC)CC(=O)N1C [PP1860]	7.99	9.96	–	–	–	–	HRAS /KRAS (HRAS wild-type protein; [9]): A (a compound having 10 or more and less than 20 is denoted as A); NRAS /KRAS [2, 10]: A (a compound having 10 or more and less than 20 is denoted as A)
CCCN1C(=O)[C@@H]2CCN2C(=O)[C@H](C)N(C)C(=O)[C@H]([C@@H](C)CC)NC(=O)[C@H](CC(C)C)N(C)C(=O)C[C@@H](C(=O)N2CCOCC2)N(C)C(=O)[C@H](C2CCCC2)N(C)C(=O)C2(CCC2)NC(=O)[C@@H]2CCCN2C(=O)[C@H](CCc2ccc(C(F)(F)F)c(Cl)c2)NC(=O)CN(C)C(=O)[C@@H]1COCCC(C)C [PP1819] ([NMeL]I[NMeA][Aze][X8][Sar][hPhe(3-Cl-4-CF3)]P[Ac4c][NMeGly(cPent)][NMeD]-Morpholide; lactam N-11)	6.83	9.00	–	–	–	–	HRAS /KRAS (HRAS wild-type protein; [9]): C (A compound having a KD ratio of 0.1 or more and less than 3 is denoted as C); NRAS /KRAS [2, 10]: C (A compound having a KD ratio of 0.1 or more and less than 3 is denoted as C)
CCC[C@@H]1C[C@H]2C(=O)NC3(CCCC3)C(=O)N(C)[C@@H](C3CCCC3)C(=O)N(C)[C@H](C(=O)N(C)C)CC(=O)N(C)[C@@H](CC)C(=O)N[C@@H]([C@@H](C)CC)C(=O)N(C)CC(=O)N(C)[C@H]3C/C=C\CCN(C3=O)[C@@H](Cc3ccc(C)cc3)C(=O)N(C)CC(=O)N[C@@H](CCc3cc(F)c(C(F)(F)F)c(F)c3)C(=O)N2C1 [PP2227]	7.30	9.57	–	–	A (a compound having 10 or more and less than 20 is denoted as A)	A (a compound having 10 or more and less than 20 is denoted as A)	–
